According to publication PMC4775402 (Pharmacological research, 2016):

What was measured:
WT HTR2A = WT HTR2A (Homo sapiens, UniProt P28223); test: Label-free DMR agonist response, HEK293T expressing WT HTR2A; assay type: cell-based; conditions: time to peak DMR
ΔPDZ HTR2A = ΔPDZ HTR2A (Homo sapiens, UniProt P28223); test: Label-free DMR agonist response, HEK293T expressing ΔPDZ HTR2A; assay type: cell-based
Chain of ΔPDZ HTR2A (P28223 1-467 limits assumed, stated change not applied): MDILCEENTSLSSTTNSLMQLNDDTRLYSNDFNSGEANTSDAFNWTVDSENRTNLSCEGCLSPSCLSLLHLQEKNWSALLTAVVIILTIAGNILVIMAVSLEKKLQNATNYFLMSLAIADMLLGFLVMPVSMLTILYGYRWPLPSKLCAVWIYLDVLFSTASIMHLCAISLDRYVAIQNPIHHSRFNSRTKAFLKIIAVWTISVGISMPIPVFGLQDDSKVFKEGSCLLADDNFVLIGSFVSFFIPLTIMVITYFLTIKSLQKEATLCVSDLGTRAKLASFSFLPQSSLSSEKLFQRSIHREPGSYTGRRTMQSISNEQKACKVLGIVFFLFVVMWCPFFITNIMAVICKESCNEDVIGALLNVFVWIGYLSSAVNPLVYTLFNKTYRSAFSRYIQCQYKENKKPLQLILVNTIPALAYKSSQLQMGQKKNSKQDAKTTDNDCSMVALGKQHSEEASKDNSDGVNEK

Chain of WT HTR2A (P28223 whole entry): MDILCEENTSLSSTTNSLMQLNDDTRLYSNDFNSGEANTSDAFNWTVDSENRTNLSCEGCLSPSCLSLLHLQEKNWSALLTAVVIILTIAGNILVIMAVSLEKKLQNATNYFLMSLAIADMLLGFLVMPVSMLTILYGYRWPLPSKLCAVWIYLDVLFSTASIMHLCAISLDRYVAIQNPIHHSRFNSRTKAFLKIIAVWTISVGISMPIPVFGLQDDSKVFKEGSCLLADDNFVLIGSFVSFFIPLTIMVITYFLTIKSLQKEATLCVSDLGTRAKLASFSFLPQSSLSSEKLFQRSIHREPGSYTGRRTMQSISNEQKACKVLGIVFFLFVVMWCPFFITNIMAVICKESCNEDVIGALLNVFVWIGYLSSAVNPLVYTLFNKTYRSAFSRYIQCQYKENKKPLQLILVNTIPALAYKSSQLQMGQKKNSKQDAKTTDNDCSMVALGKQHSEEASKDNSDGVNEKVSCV

- WT TTP (WT HTR2A): 14.10 s
- ΔPDZ Max (DMR) (ΔPDZ HTR2A; maximal agonist DMR response): 106.10 ± 3.96
- ΔPDZ TTP (ΔPDZ HTR2A; time to peak DMR): 14.70 s
SMILES: Cl.NCCc1c[nH]c2ccc(O)cc12 [5-hydroxytryptamine, 5-hydroxytryptamine hydrochloride]
